Data reported in patent US20240158446A1, “CYCLIC COMPOUND HAVING SELECTIVE INHIBITORY ACTION ON KRAS OVER HRAS AND NRAS” (CHUGAI SEIYAKU KABUSHIKI KAISHA, priority 2021, published 2024).

Tests used:
[1] = biological target: GDP-bound NRAS wild-type protein (Homo sapiens, UniProt P01111); experiment: Binding to NRAS by surface plasmon resonance (SPR), Single Cycle Kinetics; details: for NRAS/KRAS (ratio of KD value for NRAS to KD value for KRAS) / NRAS/KRAS (ratio of KD value with respect to NRAS to KD value with respect to KRAS): SPR, GDP-bound NRAS wild-type protein vs GDP-bound KRAS wild-type protein; for NRAS/KRAS (ratio of KD value with respect to GDP-bound NRAS wild-type protein to KD value with respect to KRAS): SPR KD ratio NRAS/KRAS, class symbols
Chain of GDP-bound NRAS wild-type protein (P01111 whole entry): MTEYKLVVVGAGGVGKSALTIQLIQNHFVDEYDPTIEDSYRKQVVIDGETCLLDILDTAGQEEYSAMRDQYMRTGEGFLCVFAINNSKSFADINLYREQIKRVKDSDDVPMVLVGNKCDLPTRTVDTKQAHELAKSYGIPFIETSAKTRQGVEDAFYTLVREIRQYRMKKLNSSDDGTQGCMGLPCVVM

[2] = biological target: GDP-bound HRAS wild-type protein (Homo sapiens, UniProt P01112); experiment: Binding to HRAS by surface plasmon resonance (SPR), Single Cycle Kinetics; details: for HRAS/KRAS (ratio of KD value for HRAS to KD value for KRAS) / HRAS/KRAS (ratio of KD value with respect to HRAS to KD value with respect to KRAS): SPR, GDP-bound HRAS wild-type protein vs GDP-bound KRAS wild-type protein; for HRAS/KRAS (ratio of KD value with respect to GDP-bound HRAS wild-type protein to KD value with respect to KRAS): SPR KD ratio HRAS/KRAS, class symbols
Chain of GDP-bound HRAS wild-type protein (P01112 whole entry): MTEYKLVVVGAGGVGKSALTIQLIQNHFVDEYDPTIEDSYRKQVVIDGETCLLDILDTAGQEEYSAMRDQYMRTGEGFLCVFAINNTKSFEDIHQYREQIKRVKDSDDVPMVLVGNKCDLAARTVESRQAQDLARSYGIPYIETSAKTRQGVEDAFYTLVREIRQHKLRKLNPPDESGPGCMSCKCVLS

SMILES	NRAS/KRAS (ratio of KD value for NRAS to KD value for KRAS) [1]	HRAS/KRAS (ratio of KD value for HRAS to KD value for KRAS) [2]	NRAS/KRAS (ratio of KD value with respect to GDP-bound NRAS wild-type protein to KD value with respect to KRAS) [1]	HRAS/KRAS (ratio of KD value with respect to GDP-bound HRAS wild-type protein to KD value with respect to KRAS) [2]	other results
CCC[C@H]1C(=O)N[C@@H](C2CCCC2)C(=O)N(C)CC(=O)N(C)[C@H]2C/C=C\CCN(C2=O)[C@@H](Cc2ccc(C)cc2)C(=O)N(C)CC(=O)N[C@@H](CCc2ccc(C(F)(F)F)c(OC)c2)C(=O)N2C[C@H](OCC)C[C@H]2C(=O)NC2(CC(C)(C)C2)C(=O)N(C)[C@@H](CC(C)(C)C)C(=O)N(C)[C@H](C(=O)N(C)C)CC(=O)N1C [PP3005]	A (a compound having 10 or more and less than 20 is denoted as A)	B (a compound having 3 or more and less than 10 is denoted as B)			
CCC[C@H]1C(=O)N[C@@H](C2CCCC2)C(=O)N(C)CC(=O)N(C)[C@H]2C/C=C\CCN(C2=O)[C@@H](Cc2ccc(C)cc2)C(=O)N(C)CC(=O)N[C@@H](CCc2cc(F)c(C(F)(F)F)c(F)c2)C(=O)N2C[C@H](OCC)C[C@H]2C(=O)NC2(CC(C)(C)C2)C(=O)N(C)[C@@H](C2CCCC2)C(=O)N(C)[C@H](C(=O)N(C)C)CC(=O)N1C [PP2988]	B (a compound having 3 or more and less than 10 is denoted as B)	B (a compound having 3 or more and less than 10 is denoted as B)			
CCO[C@@H]1C[C@H]2C(=O)NC3(CC(C)(C)C3)C(=O)N(C)[C@@H](C3CCCC3)C(=O)N(C)[C@H](C(=O)N(C)C)CC(=O)N(C)[C@@H](CC(C)C)C(=O)N[C@@H]([C@@H](C)CC)C(=O)N(C)CC(=O)N(C)[C@H]3C/C=C\CCN(C3=O)[C@@H](Cc3ccc(C(C)C)cc3)C(=O)N(C)CC(=O)N[C@@H](CCc3ccc(C(F)(F)F)c(OC)c3)C(=O)N2C1 [PP2692]			A (a compound having 10 or more and less than 20 is denoted as A)	A (a compound having 10 or more and less than 20 is denoted as A)	
CCCN1C(=O)[C@H](C2CCCC2)N(C)C(=O)C2(CCC2)NC(=O)[C@@H]2C[C@@H](OCC)CN2C(=O)[C@H](CCc2cc(F)c(C(F)(F)F)c(F)c2)NC(=O)CN(C)C(=O)[C@H](Cc2ccc(C(F)(F)F)cc2)N2CCCC[C@@H](C2=O)N(C)C(=O)CN(C)C(=O)[C@H]([C@@H](C)CC)NC(=O)[C@H](CC)N(C)C(=O)C[C@H]1C(=O)N(C)C [PP0644]					NRAS/KRAS (ratio of KD value with respect to NRAS to KD value with respect to KRAS) [1]: C (A compound having a KD ratio of 0.1 or more and less than 3 is denoted as C); HRAS/KRAS (ratio of KD value with respect to HRAS to KD value with respect to KRAS) [2]: B (a compound having 3 or more and less than 10 is denoted as B)
CCO[C@@H]1C[C@H]2C(=O)NC3(CCC3)C(=O)N(C)[C@@H](C3CCCC3)C(=O)N(C)[C@H](C(=O)N(C)CC)CC(=O)N(C)[C@@H](CC(C)C)C(=O)N[C@@H]([C@@H](C)CC)C(=O)N(C)CC(=O)N(C)[C@H]3C/C=C\CCN(C3=O)[C@@H](Cc3ccc(C(F)(F)F)cc3)C(=O)N(C)CC(=O)N[C@@H](CCc3ccc(C(F)(F)F)c(Cl)c3)C(=O)N2C1 [PP2847]			A (a compound having 10 or more and less than 20 is denoted as A)	A (a compound having 10 or more and less than 20 is denoted as A)	
CCC[C@H]1C(=O)N[C@@H]([C@@H](C)CC)C(=O)N(C2CC2)CC(=O)N(C)[C@H]2C/C=C\CCN(C2=O)[C@@H](Cc2ccc(C)cc2)C(=O)N(C)CC(=O)N[C@@H](CCc2cc(F)c(Cl)c(OC)c2)C(=O)N2C[C@H](OCC)C[C@H]2C(=O)NC2(CC(C)(C)C2)C(=O)N(C)[C@@H](C2CCCC2)C(=O)N(C)[C@H](C(=O)N(C)C)CC(=O)N1C [PP2871]			A (a compound having 10 or more and less than 20 is denoted as A)	A (a compound having 10 or more and less than 20 is denoted as A)	
CCO[C@@H]1C[C@H]2C(=O)NC3(CCC3)C(=O)N(C)[C@@H](C3CCCC3)C(=O)N(C)[C@H](C(=O)N(C)C)CC(=O)N(C)[C@@H](CC3CCCC3)C(=O)N[C@@H]([C@@H](C)CC)C(=O)N(C)CC(=O)N(C)[C@H]3CCCCN(C3=O)[C@@H](Cc3ccc(C(F)(F)F)cc3)C(=O)N(C)CC(=O)N[C@@H](CCc3cc(F)c(C(F)(F)F)c(F)c3)C(=O)N2C1 [PP0700]					NRAS/KRAS (ratio of KD value with respect to NRAS to KD value with respect to KRAS) [1]: C (A compound having a KD ratio of 0.1 or more and less than 3 is denoted as C); HRAS/KRAS (ratio of KD value with respect to HRAS to KD value with respect to KRAS) [2]: B (a compound having 3 or more and less than 10 is denoted as B)
CCC[C@@H]1C[C@H]2C(=O)NC3(CCCC3)C(=O)N(C)[C@@H](C3CCCC3)C(=O)N(C)[C@H](C(=O)N(C)C)CC(=O)N(C)[C@@H](CC(C)C)C(=O)N[C@@H]([C@@H](C)CC)C(=O)N(C)CC(=O)N(C)[C@H]3C/C=C\CCN(C3=O)[C@@H](Cc3ccc(C)cc3)C(=O)N(C)CC(=O)N[C@@H](CCc3cc(F)c(C(F)(F)F)c(F)c3)C(=O)N2C1 [PP2193]	A (a compound having 10 or more and less than 20 is denoted as A)	A (a compound having 10 or more and less than 20 is denoted as A)			
CCC[C@H]1C(=O)N[C@@H]([C@@H](C)CC)C(=O)N(C)CC(=O)N(C)[C@H]2C/C=C\CCN(C2=O)[C@@H](Cc2ccc(C(F)(F)F)cc2)C(=O)N(C)CC(=O)N[C@@H](CCc2cc(C)c(C(F)F)c(F)c2)C(=O)N2C[C@H](OCC)C[C@H]2C(=O)NC2(CC(C)(C)C2)C(=O)N(C)[C@@H](C2CCCC2)C(=O)N(C)[C@H](C(=O)N(C)C)CC(=O)N1C [PP2860]			A (a compound having 10 or more and less than 20 is denoted as A)	A (a compound having 10 or more and less than 20 is denoted as A)	
CCCN1C(=O)[C@@H]2CCN2C(=O)[C@H](C)N(C)C(=O)[C@H]([C@@H](C)CC)NC(=O)[C@H](CC(C)C)N(C)C(=O)C[C@@H](C(=O)N2CCOCC2)N(C)C(=O)[C@H](C2CCCC2)N(C)C(=O)C2(CCCC2)NC(=O)[C@@H]2C[C@H](O)CN2C(=O)[C@H](CCc2ccc(C(F)(F)F)c(Cl)c2)NC(=O)CN(C)C(=O)[C@@H]1Cc1ccc(C(F)(F)F)cc1 (stereo in doubt) [PP0238]	C (A compound having a KD ratio of 0.1 or more and less than 3 is denoted as C)	C (A compound having a KD ratio of 0.1 or more and less than 3 is denoted as C)			
CCC[C@H]1C(=O)N[C@@H]([C@@H](C)CC)C(=O)N(C2CC2)CC(=O)N(C)[C@H]2C/C=C\CCN(C2=O)[C@@H](Cc2ccc(C)cc2)C(=O)N(C)CC(=O)N[C@@H](CCc2cc(C)c(C(F)F)c(Cl)c2)C(=O)N2C[C@H](OCC)C[C@H]2C(=O)NC2(CC(C)(C)C2)C(=O)N(C)[C@@H](C2CCCC2)C(=O)N(C)[C@H](C(=O)N(C)C)CC(=O)N1C [PP2875]			A (a compound having 10 or more and less than 20 is denoted as A)	A (a compound having 10 or more and less than 20 is denoted as A)	
